For two molecules, inhibition results are on record in patent US9045482B2, “Pyrido[4,3-B]indoles and methods of use” (Medivation Technologies, Inc., priority 2009, dated 2015).

The target in this experiment is T1, human recombinant histamine H2 receptor (Homo sapiens, UniProt P25021).
T1 construct: expressed in transfected cells; host or cells: Chinese hamster ovary (CHO) K1 cells
Description: Histamine H2 radioligand binding (Aminopotentidine). The conditions noted are these: read-out: Binding data (Percentage Inhibition) Histamine Binding H2. The protocol:
To evaluate in radioligand binding assays the activity of compounds of the invention, human recombinant histamine H2 receptor expressed in Chinese hamster ovary (CHO) K1 cells [Ruat, M., Proc. Natl. Acad. Sci. USA. (1990), 87(5):1658] in a 50 mM Phosphate buffer, pH 7.4 was used. Compounds of the invention were incubated with 0.1 nM […] for 120 min at 25° C. Non-specific binding was estimated in the presence of 3 μM Tiotidine. Receptor proteins were filtered and washed, the filters were then counted to determine […] specifically bound. Compounds were screened at 1 μM or lower, using 1% DMSO as vehicle. Biochemical assay results are presented as the percent inhibition of specific binding in Table 2.

T1 sequence (P25021 whole entry): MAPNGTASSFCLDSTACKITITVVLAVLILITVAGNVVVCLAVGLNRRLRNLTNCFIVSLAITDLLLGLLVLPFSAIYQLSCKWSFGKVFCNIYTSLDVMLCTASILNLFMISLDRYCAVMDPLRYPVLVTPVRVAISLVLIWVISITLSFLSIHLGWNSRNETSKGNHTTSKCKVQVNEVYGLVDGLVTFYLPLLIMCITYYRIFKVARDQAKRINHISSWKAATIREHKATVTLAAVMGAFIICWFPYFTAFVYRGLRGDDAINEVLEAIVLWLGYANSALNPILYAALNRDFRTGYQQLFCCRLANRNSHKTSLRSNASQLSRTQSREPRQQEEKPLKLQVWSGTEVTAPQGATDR

The term inhibition denotes the share of the control response that was lost under treatment. With `Fc1ccc(CCn2c3c(c4cc(Cl)ccc42)C2CCCN2CC3)cc1` (centres unmarked) [Compound 1, 7-(4-fluorophenethyl)-10-chloro-2,3,5,6,7,11c-hexahydro-1H-indolizino[7,8-b]indole], the inhibition at 1 µM amounted to 15%.
For the molecule `Fc1ccc(CCn2c3c(c4cc(Cl)ccc42)CN2CCCC2C3)cc1` (centres unmarked) [Compound 2, 10-(4-fluorophenethyl)-7-chloro-2,3,5,10,11,11a-hexahydro-1H-indolizino[7,6-b]indole], the inhibition at 1 µM came to 17%.
